Assay results taken from patent US9169254B2, “Spiroimidazolone derivative” (Chugai Seiyaku Kabushiki Kaisha, priority 2009, dated 2015).

molecular target: T1, human PTH1 receptor (Homo sapiens, UniProt Q03431); assay: In vitro cAMP signal activity in HKRK-B7 cells (LLC-PK1 cells overexpressing the human PTH1 receptor); assay type: cell-based; conditions: HKRK-B7 cells; compound at 1×10^−3 M; cAMP produced as percentage of that produced by hPTH(1-34) at 100 nM
T1 sequence (Q03431 27-593): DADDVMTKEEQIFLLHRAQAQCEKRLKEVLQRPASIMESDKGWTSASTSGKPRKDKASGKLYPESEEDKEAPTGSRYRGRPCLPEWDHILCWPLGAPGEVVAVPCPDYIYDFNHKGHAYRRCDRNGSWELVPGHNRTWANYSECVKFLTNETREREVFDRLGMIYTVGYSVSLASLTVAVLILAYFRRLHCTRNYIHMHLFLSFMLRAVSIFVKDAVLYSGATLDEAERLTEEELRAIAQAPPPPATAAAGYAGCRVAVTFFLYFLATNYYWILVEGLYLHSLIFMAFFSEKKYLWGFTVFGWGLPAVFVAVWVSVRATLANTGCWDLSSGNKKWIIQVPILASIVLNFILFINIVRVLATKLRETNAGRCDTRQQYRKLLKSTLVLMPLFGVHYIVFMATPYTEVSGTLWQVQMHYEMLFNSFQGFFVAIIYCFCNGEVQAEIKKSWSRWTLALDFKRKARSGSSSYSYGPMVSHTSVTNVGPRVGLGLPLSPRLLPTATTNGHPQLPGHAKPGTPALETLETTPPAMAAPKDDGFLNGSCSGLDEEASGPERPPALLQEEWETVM

| Structure (SMILES) | cAMP production activity (%) |
| --- | --- |
| COC(=O)c1sccc1S(=O)(=O)N1CCC2(CC1)N=C(C1CCCCC1)NC2=O [Compound 62, 3-(2-cyclohexyl-4-oxo-1,3,8-triaza-spiro[4.5]dec-1-ene-8-sulfonyl)-thiophene-2-carboxylic acid methyl ester] | 56% |
| Cc1cc(N(C)C(N)=O)cc(C)c1CCS(=O)(=O)N1CCC2(CC1)N=C(C1(CCCC(F)(F)F)CC1)NC2=O [Compound 1048, 1-[3,5-Dimethyl-4-(2-{4-oxo-2-[1-(4,4,4-trifluoro-butyl)-cyclopropyl]-1,3,8-triaza-spiro[4.5]dec-1-ene-8-sulfonyl}-ethyl)-phenyl]-1-methyl-urea] | 96% |
| O=C(NCCO)Nc1ccc(/C=C/S(=O)(=O)N2CCC3(CC2)N=C(C2CCCCC2)NC3=O)c(C(F)(F)F)c1 [Compound 198, 1-{4-[(E)-2-(2-cyclohexyl-4-oxo-1,3,8-triaza-spiro[4.5]dec-1-ene-8-sulfonyl)-vinyl]-3-trifluoromethyl-phenyl}-3-(2-hydroxy-ethyl)-urea] | 31% |
| CCOCCCCCCC1=NC2(CCN([S@TB18](=O)(=O)/C=C/c3c(C)cc(N(C)C(N)=O)cc3C)CC2)C(=O)N1 [Compound 1115, 1-(4-{(E)-2-[2-(6-ethoxy-hexyl)-4-oxo-1,3,8-triaza-spiro[4.5]dec-1-ene-8-sulfonyl]-vinyl}-3,5-dimethyl-phenyl)-1-methyl-urea] | 140% |
| Cc1cc(C(=O)N2CCC(C)(O)CC2)cc(C)c1/C=C/S(=O)(=O)N1CCC2(CC1)N=C(c1ccc(F)c(C(F)(F)F)c1)NC2=O [Compound 642, 2-(4-fluoro-3-trifluoromethyl-phenyl)-8-{(E)-2-[4-(4-hydroxy-4-methyl-piperidine-1-carbonyl)-2,6-dimethyl-phenyl]-ethenesulfonyl}-1,3,8-triaza-spiro[4.5]dec-1-en-4-one] | 87% |
| Cc1cc(C(=O)N(C)C)ccc1CCS(=O)(=O)N1CCC2(CC1)N=C(C1(C(F)(F)F)CCCC1)NC2=O [Compound 138, 3,N,N-trimethyl-4-{2-[4-oxo-2-(1-trifluoromethyl-cyclopentyl)-1,3,8-triaza-spiro[4.5]dec-1-ene-8-sulfonyl]-ethyl}-benzamide] | 49% |
| Cc1c(/C=C/S(=O)(=O)N2CCC3(CC2)N=C(c2cccc(OC(F)(F)F)c2)NC3=O)cccc1OCCO [Compound 256, 8-{(E)-2-[3-(2-Hydroxy-ethoxy)-2-methyl-phenyl]-ethenesulfonyl}-2-(3-trifluoromethoxy-phenyl)-1,3,8-triaza-spiro[4.5]dec-1-en-4-one] | 67% |
| Cc1cc(CN2C(=O)CCC2=O)cc(C)c1CCS(=O)(=O)N1CCC2(CC1)N=C(C1CCC(C)CC1)NC2=O (stereo not shown) [Compound 782, 1-(3,5-dimethyl-4-{2-[2-(4-methyl-cyclohexyl)-4-oxo-1,3,8-triaza-spiro[4.5]dec-1-ene-8-sulfonyl]-ethyl}-benzyl)-pyrrolidine-2,5-dione] | 14% |
| CON(C)C(=O)c1cc(C)c(CCS(=O)(=O)N2CCC3(CC2)N=C(C2CCC(C)CC2)NC3=O)c(C)c1 (stereo not shown) [Compound 1180, N-methoxy-3,5,N-trimethyl-4-{2-[2-(4-methyl-cyclohexyl)-4-oxo-1,3,8-triaza-spiro[4.5]dec-1-ene-8-sulfonyl]-ethyl}-benzamide] | 73% |
| [2H]C([2H])([2H])C1([2H])CCC(C2=NC3(CCN([S@TB18](=O)(=O)/C=C/c4c(C)cc(N(C)C(N)=O)cc4C)CC3)C(=O)N2)CC1 (stereo not shown) [Compound 1110, 1-(3,5-dimethyl-4-{(E)-2-[2-(4-[1,1,1-^2H3]methyl-[4-^2H1]cyclohexyl)-4-oxo-1,3,8-triaza-spiro[4.5]dec-1-ene-8-sulfonyl]-vinyl}-phenyl)-1-methyl-urea] | 92% |
| CC1CCC(C2=NC3(CCN(S(=O)(=O)CCCc4cccc5[nH]ccc45)CC3)C(=O)N2)CC1 (stereo not shown) [Compound 311, 8-[3-(1H-indol-4-yl)-propane-1-sulfonyl]-2-(4-methyl-cyclohexyl)-1,3,8-triaza-spiro[4.5]dec-1-en-4-one] | 67% |
| CCCSCCCCCC1=NC2(CCN([S@TB17](=O)(=O)/C=C/c3c(C)cc(N(C)C(N)=O)cc3C)CC2)C(=O)N1 [Compound 1122, 1-(3,5-dimethyl-4-{(E)-2-[4-oxo-2-(5-propylsulfanyl-pentyl)-1,3,8-triaza-spiro[4.5]dec-1-ene-8-sulfonyl]-vinyl}-phenyl)-1-methyl-urea] | 150% |
| CC(=O)Nc1ccc(CCS(=O)(=O)N2CCC3(CC2)N=C(C2CCC(C(C)(C)F)CC2)NC3=O)c(C)c1 (stereo not shown) [Compound 1078, N-[4-(2-{2-[4-(1-Fluoro-1-methyl-ethyl)-cyclohexyl]-4-oxo-1,3,8-triaza-spiro[4.5]dec-1-ene-8-sulfonyl}-ethyl)-3-methyl-phenyl]-acetamide] | 74% |
| O=C1NC(C2CCCN(S(=O)(=O)c3ccccc3)C2)=NC12CCN(S(=O)(=O)c1cccc(Cl)c1)CC2 (stereo not shown) [Compound 41, 2-(1-benzenesulfonyl-piperidin-3-yl)-8-(3-chloro-benzenesulfonyl)-1,3,8-triaza-spiro[4.5]dec-1-en-4-one] | 21% |
| CCCCCC[C@@H]1CCC[C@H](C2=NC3(CCN(S(=O)(=O)CCc4c(C)cc(N(C)C(N)=O)cc4C)CC3)C(=O)N2)C1 [Compound 1143, 1-(4-{2-[2-((1S,3R)-3-Hexyl-cyclohexyl)-4-oxo-1,3,8-triaza-spiro[4.5]dec-1-ene-8-sulfonyl]-ethyl}-3,5-dimethyl-phenyl)-1-methyl-urea] | 78% |
| Cc1cc(N2C(=O)CNC2=O)ccc1CCS(=O)(=O)N1CCC2(CC1)N=C(C1CCC(C(C)C)CC1)NC2=O (stereo not shown) [Compound 882, 3-(4-{2-[2-(4-isopropyl-cyclohexyl)-4-oxo-1,3,8-triaza-spiro[4.5]dec-1-ene-8-sulfonyl]-ethyl}-3-methyl-phenyl)-imidazolidine-2,4-dione] | 70% |
| Cc1cc(N(CCO)C(=O)C(C)C)ccc1CCS(=O)(=O)N1CCC2(CC1)N=C(c1cccc(OC(F)(F)F)c1)NC2=O [Compound 929, N-(2-Hydroxy-ethyl)-N-(3-methyl-4-{2-[4-oxo-2-(3-trifluoromethoxy-phenyl)-1,3,8-triaza-spiro[4.5]dec-1-ene-8-sulfonyl]-ethyl}-phenyl)-isobutylamide] | 76% |
| Cc1cc2c(ccn2C[C@@H](O)CO)c(C)c1CCS(=O)(=O)N1CCC2(CC1)N=C(C1CCC(CCC(F)(F)F)CC1)NC2=O (stereo partly drawn) [Compound 791, 8-{2-[1-((R)-2,3-dihydroxy-propyl)-4,6-dimethyl-1H-indol-5-yl]-ethanesulfonyl}-2-[4-(3,3,3-trifluoro-propyl)-cyclohexyl]-1,3,8-triaza-spiro[4.5]dec-1-en-4-one] | 6.1% |
| COCCC1CCC(C2=NC3(CCN(S(=O)(=O)CCc4ccc(NC(C)=O)cc4C)CC3)C(=O)N2)CC1 (stereo not shown) [Compound 927, N-[4-(2-{2-[4-(2-Methoxy-ethyl)-cyclohexyl]-4-oxo-1,3,8-triaza-spiro[4.5]dec-1-ene-8-sulfonyl}-ethyl)-3-methyl-phenyl]-acetamide] | 80% |
| Cc1cc(S(=O)(=O)NCCN2CCOCC2)ccc1CCS(=O)(=O)N1CCC2(CC1)N=C(c1cccc(C(F)(F)F)c1)NC2=O [Compound 292, 3-methyl-N-(2-morpholin-4-yl-ethyl)-4-{2-[4-oxo-2-(3-trifluoromethyl-phenyl)-1,3,8-triaza-spiro[4.5]dec-1-ene-8-sulfonyl]-ethyl}-benzenesulfonamide] | 58% |
| Cc1cc(N2C[C@H](O)CC2=O)ccc1CCS(=O)(=O)N1CCC2(CC1)N=C(c1cccc(C(F)(F)F)c1)NC2=O [Compound 297, 8-{2-[4-((R)-4-hydroxy-2-oxo-pyrrolidin-1-yl)-2-methyl-phenyl]-ethanesulfonyl}-2-(3-trifluoromethyl-phenyl)-1,3,8-triaza-spiro[4.5]dec-1-en-4-one] | 91% |
| CC(C)C1=NC2(CCN(S(=O)(=O)c3cccc(Cl)c3)CC2)C(=O)N1 [Compound 4, 8-(3-chloro-benzenesulfonyl)-2-isopropyl-1,3,8-triaza-spiro[4.5]dec-1-en-4-one] | 11% |
| Cc1cc(N(C)C(N)=O)cc(C)c1CC[S@TB3](=O)(=O)N1CCC2(CC1)N=C(c1cccc(CCC(C)C)c1)NC2=O [Compound 1144, 1-[3,5-dimethyl-4-(2-{2-[3-(3-methyl-butyl)-phenyl]-4-oxo-1,3,8-triaza-spiro[4.5]dec-1-ene-8-sulfonyl}-ethyl)-phenyl]-1-methyl-urea] | 124% |
| Cc1cc(C(=O)N(C)C)ccc1CCS(=O)(=O)N1CCC2(CC1)N=C(c1cccc3c1OC(F)(F)O3)NC2=O [Compound 92, 4-{2-[2-(2,2-difluoro-benzo[1,3]dioxol-4-yl)-4-oxo-1,3,8-triaza-spiro[4.5]dec-1-ene-8-sulfonyl]-ethyl}-3,N,N-trimethyl-benzamide] | 97% |
| Cc1cc(C(=O)N2CCC(CCO)CC2)ccc1CCS(=O)(=O)N1CCC2(CC1)N=C(c1cccc(C(F)(F)F)c1)NC2=O [Compound 357, 8-(2-{4-[4-(2-hydroxy-ethyl)-piperidine-1-carbonyl]-2-methyl-phenyl}-ethanesulfonyl)-2-(3-trifluoromethyl-phenyl)-1,3,8-triaza-spiro[4.5]dec-1-en-4-one] | 78% |
